{
  "source": "ChEMBL document CHEMBL1201861",
  "about": "“Genomics of Drug Sensitity in Cancer screening data, Wellcome Trust Sanger Institute”",
  "assay_in_all_cases": "cells",
  "key": {"KG-1": {"tested_on": "KG-1", "type": "functional, cell-based", "conditions": "Homo sapiens"}, "CHL-1": {"tested_on": "CHL-1", "type": "functional, cell-based, Homo sapiens", "conditions": "Homo sapiens, CHL-1"}, "JEG-3": {"tested_on": "JEG-3", "type": "functional, cell-based, Homo sapiens", "conditions": "Homo sapiens, JEG-3"}, "HuTu80": {"tested_on": "HuTu80", "type": "functional, cell-based, Homo sapiens, HUTU-80", "conditions": "Homo sapiens, HuTu80"}, "TK-10": {"tested_on": "TK-10", "type": "functional, cell-based, Homo sapiens", "conditions": "Homo sapiens, TK-10"}, "RPMI-8866": {"tested_on": "RPMI-8866", "type": "functional, cell-based", "conditions": "Homo sapiens"}, "SKG-IIIa": {"tested_on": "SKG-IIIa", "type": "functional, cell-based, Homo sapiens", "conditions": "Homo sapiens, SKG-IIIa"}, "NCI-H2052": {"tested_on": "NCI-H2052", "type": "functional, cell-based, Homo sapiens", "conditions": "Homo sapiens, NCI-H2052"}, "BB30-HNC": {"tested_on": "BB30-HNC", "type": "functional, cell-based, Homo sapiens", "conditions": "Homo sapiens, BB30-HNC"}, "CAL-72": {"tested_on": "CAL-72", "type": "functional, cell-based, Homo sapiens", "conditions": "Homo sapiens, CAL-72"}, "HL-60": {"tested_on": "HL-60", "type": "functional, cell-based", "conditions": "Homo sapiens"}, "SBC-5": {"tested_on": "SBC-5", "type": "functional, cell-based, Homo sapiens", "conditions": "Homo sapiens, SBC-5"}, "ONS-76": {"tested_on": "ONS-76", "type": "functional, cell-based, Homo sapiens", "conditions": "Homo sapiens, ONS-76"}, "MDA-MB-157": {"tested_on": "MDA-MB-157", "type": "functional, cell-based, Homo sapiens", "conditions": "Homo sapiens, MDA-MB-157"}, "NCI-H1755": {"tested_on": "NCI-H1755", "type": "functional, cell-based, Homo sapiens", "conditions": "Homo sapiens, NCI-H1755"}, "GAK": {"tested_on": "GAK", "type": "functional, cell-based, Homo sapiens", "conditions": "Homo sapiens, GAK"}, "SK-MEL-24": {"tested_on": "SK-MEL-24", "type": "functional, cell-based", "conditions": "Homo sapiens"}, "BFTC-905": {"tested_on": "BFTC-905", "type": "functional, cell-based, Homo sapiens", "conditions": "Homo sapiens, BFTC-905"}, "MPP-89": {"tested_on": "MPP-89", "type": "functional, cell-based, Homo sapiens", "conditions": "Homo sapiens, MPP-89"}, "NCI-H2347": {"tested_on": "NCI-H2347", "type": "functional, cell-based, Homo sapiens", "conditions": "Homo sapiens, NCI-H2347"}, "MHH-PREB-1": {"tested_on": "MHH-PREB-1", "type": "functional, cell-based", "conditions": "Homo sapiens"}, "NCI-H661": {"tested_on": "NCI-H661", "type": "functional, cell-based, Homo sapiens", "conditions": "Homo sapiens, NCI-H661"}, "5637": {"tested_on": "5637", "type": "functional, cell-based, Homo sapiens", "conditions": "Homo sapiens"}, "HCC1395": {"tested_on": "HCC1395", "type": "functional, cell-based, Homo sapiens", "conditions": "Homo sapiens, HCC1395"}, "TE-10": {"tested_on": "TE-10", "type": "functional, cell-based, Homo sapiens", "conditions": "Homo sapiens, TE-10"}, "NCI-H596": {"tested_on": "NCI-H596", "type": "functional, cell-based, Homo sapiens", "conditions": "Homo sapiens, NCI-H596"}, "HT-144": {"tested_on": "HT-144", "type": "functional, cell-based, Homo sapiens", "conditions": "Homo sapiens, HT-144"}, "8-MG-BA": {"tested_on": "8-MG-BA", "type": "functional, cell-based, Homo sapiens", "conditions": "Homo sapiens, 8-MG-BA"}, "HCC1187": {"tested_on": "HCC1187", "type": "functional, cell-based, Homo sapiens", "conditions": "Homo sapiens, HCC1187"}, "K5": {"tested_on": "K5", "type": "functional, cell-based, Homo sapiens", "conditions": "Homo sapiens, K5"}, "BXPC-3": {"tested_on": "BXPC-3", "type": "functional, cell-based, Homo sapiens", "conditions": "Homo sapiens, BXPC-3"}, "CTB-1": {"tested_on": "CTB-1", "type": "functional, cell-based", "conditions": "Homo sapiens"}, "T-24": {"tested_on": "T-24", "type": "functional, cell-based, Homo sapiens", "conditions": "Homo sapiens, T-24"}, "KU812 cell line": {"tested_on": "KU812 cell line", "type": "functional, cell-based", "conditions": "Homo sapiens"}, "HuCCT-1": {"tested_on": "HuCCT-1", "type": "functional, cell-based, Homo sapiens, HuCCT1", "conditions": "Homo sapiens, HuCCT-1"}, "IA-LM": {"tested_on": "IA-LM", "type": "functional, cell-based, Homo sapiens", "conditions": "Homo sapiens, IA-LM"}, "D-263MG": {"tested_on": "D-263MG", "type": "functional, cell-based, Homo sapiens", "conditions": "Homo sapiens, D-263MG"}, "OAW-42": {"tested_on": "OAW-42", "type": "functional, cell-based, Homo sapiens", "conditions": "Homo sapiens, OAW-42"}, "NCI-H720": {"tested_on": "NCI-H720", "type": "functional, cell-based", "conditions": "Homo sapiens"}, "IGROV-1": {"tested_on": "IGROV-1", "type": "functional, cell-based, Homo sapiens", "conditions": "Homo sapiens, IGROV-1"}, "NCI-H23": {"tested_on": "NCI-H23", "type": "functional, cell-based, Homo sapiens", "conditions": "Homo sapiens, NCI-H23"}, "NCI-H1651": {"tested_on": "NCI-H1651", "type": "functional, cell-based, Homo sapiens", "conditions": "Homo sapiens, NCI-H1651"}, "P12-Ichikawa": {"tested_on": "P12-Ichikawa", "type": "functional, cell-based", "conditions": "Homo sapiens"}, "SNU-387": {"tested_on": "SNU-387", "type": "functional, cell-based, Homo sapiens", "conditions": "Homo sapiens, SNU-387"}, "SCC-25": {"tested_on": "SCC-25", "type": "functional, cell-based, Homo sapiens", "conditions": "Homo sapiens, SCC-25"}, "CP50-MEL-B": {"tested_on": "CP50-MEL-B", "type": "functional, cell-based, Homo sapiens", "conditions": "Homo sapiens, CP50-MEL-B"}, "HCE-4": {"tested_on": "HCE-4", "type": "functional, cell-based, Homo sapiens", "conditions": "Homo sapiens, HCE-4"}, "GI-1": {"tested_on": "GI-1", "type": "functional, cell-based, Homo sapiens", "conditions": "Homo sapiens, GI-1"}, "HOS": {"tested_on": "HOS", "type": "functional, cell-based, Homo sapiens", "conditions": "Homo sapiens, HOS"}, "A 172": {"tested_on": "A 172", "type": "functional, cell-based, Homo sapiens", "conditions": "Homo sapiens, A 172"}, "NCI-H747": {"tested_on": "NCI-H747", "type": "functional, cell-based", "conditions": "Homo sapiens"}},
  "data": [
    {"compound": "CN(C)C/C=C/C(=O)Nc1cc2c(Nc3ccc(F)c(Cl)c3)ncnc2cc1O[C@H]1CCOC1", "note": "[AFATINIB]", "values": [
      {"measurement": "IC50", "setting": "KG-1", "result": "> 500", "unit": "nM"},
      {"measurement": "IC50", "setting": "CHL-1", "result": 18.4, "unit": "nM"},
      {"measurement": "IC50", "setting": "JEG-3", "result": "> 500", "unit": "nM"},
      {"measurement": "IC50", "setting": "HuTu80", "result": "> 500", "unit": "nM"},
      {"measurement": "IC50", "setting": "TK-10", "result": 267, "unit": "nM"},
      {"measurement": "IC50", "setting": "RPMI-8866", "result": "> 500", "unit": "nM"},
      {"measurement": "IC50", "setting": "SKG-IIIa", "result": "> 500", "unit": "nM"},
      {"measurement": "IC50", "setting": "NCI-H2052", "result": "> 500", "unit": "nM"},
      {"measurement": "IC50", "setting": "BB30-HNC", "result": 166, "unit": "nM"},
      {"measurement": "IC50", "setting": "CAL-72", "result": "> 500", "unit": "nM"},
      {"measurement": "IC50", "setting": "HL-60", "result": "> 500", "unit": "nM"},
      {"measurement": "IC50", "setting": "SBC-5", "result": "> 500", "unit": "nM"},
      {"measurement": "IC50", "setting": "ONS-76", "result": "> 500", "unit": "nM"},
      {"measurement": "IC50", "setting": "MDA-MB-157", "result": "> 500", "unit": "nM"},
      {"measurement": "IC50", "setting": "NCI-H1755", "result": "> 500", "unit": "nM"},
      {"measurement": "IC50", "setting": "GAK", "result": "[…]"},
      {"measurement": "IC50", "setting": "SK-MEL-24", "result": "> 500", "unit": "nM"},
      {"measurement": "IC50", "setting": "BFTC-905", "result": "> 500", "unit": "nM"},
      {"measurement": "IC50", "setting": "MPP-89", "result": "> 500", "unit": "nM"},
      {"measurement": "IC50", "setting": "NCI-H2347", "result": "> 500", "unit": "nM"},
      {"measurement": "IC50", "setting": "MHH-PREB-1", "result": "> 500", "unit": "nM"},
      {"measurement": "IC50", "setting": "NCI-H661", "result": "> 500", "unit": "nM"},
      {"measurement": "IC50", "setting": "5637", "result": "> 500", "unit": "nM"},
      {"measurement": "IC50", "setting": "HCC1395", "result": "> 500", "unit": "nM"},
      {"measurement": "IC50", "setting": "TE-10", "result": "> 500", "unit": "nM"},
      {"measurement": "IC50", "setting": "NCI-H596", "result": "> 500", "unit": "nM"},
      {"measurement": "IC50", "setting": "HT-144", "result": "> 500", "unit": "nM"},
      {"measurement": "IC50", "setting": "8-MG-BA", "result": "> 500", "unit": "nM"},
      {"measurement": "IC50", "setting": "HCC1187", "result": "> 500", "unit": "nM"},
      {"measurement": "IC50", "setting": "K5", "result": "> 500", "unit": "nM"},
      {"measurement": "IC50", "setting": "BXPC-3", "result": "> 500", "unit": "nM"},
      {"measurement": "IC50", "setting": "CTB-1", "result": "> 500", "unit": "nM"},
      {"measurement": "IC50", "setting": "T-24", "result": "> 500", "unit": "nM"},
      {"measurement": "IC50", "setting": "KU812 cell line", "result": 155, "unit": "nM"},
      {"measurement": "IC50", "setting": "HuCCT-1", "result": "> 500", "unit": "nM"},
      {"measurement": "IC50", "setting": "IA-LM", "result": "> 500", "unit": "nM"},
      {"measurement": "IC50", "setting": "D-263MG", "result": "> 500", "unit": "nM"},
      {"measurement": "IC50", "setting": "OAW-42", "result": "> 500", "unit": "nM"},
      {"measurement": "IC50", "setting": "NCI-H720", "result": 53.2, "unit": "nM"},
      {"measurement": "IC50", "setting": "IGROV-1", "result": 260, "unit": "nM"},
      {"measurement": "IC50", "setting": "NCI-H23", "result": "> 500", "unit": "nM"},
      {"measurement": "IC50", "setting": "NCI-H1651", "result": "> 500", "unit": "nM"},
      {"measurement": "IC50", "setting": "P12-Ichikawa", "result": "> 500", "unit": "nM"},
      {"measurement": "IC50", "setting": "SNU-387", "result": "> 500", "unit": "nM"},
      {"measurement": "IC50", "setting": "SCC-25", "result": "> 500", "unit": "nM"},
      {"measurement": "IC50", "setting": "CP50-MEL-B", "result": "> 500", "unit": "nM"},
      {"measurement": "IC50", "setting": "HCE-4", "result": "> 500", "unit": "nM"},
      {"measurement": "IC50", "setting": "GI-1", "result": "> 500", "unit": "nM"},
      {"measurement": "IC50", "setting": "HOS", "result": "> 500", "unit": "nM"},
      {"measurement": "IC50", "setting": "A 172", "result": "> 500", "unit": "nM"},
      {"measurement": "IC50", "setting": "NCI-H747", "result": "> 500", "unit": "nM"}
    ]}
  ]
}
